From patent US20170058349A1, “METHODS FOR MANAGING CARE OF PATIENTS PREDISPOSED TO PROGRESSIVE MITRAL VALVE DISEASES” (The Children's Hospital of Philadelphia, priority 2014, published 2017)

Tests used:
human MVICs = assay: MVIC activation in vitro (SMA expression after 5HT stimulation); type: cell-based; conditions: for SMA expression on 5HT stimulation: 5HT 10 nM; for VIC activation associated with 5HTR activation: human MVICs in vitro, antagonists of 5HTR2A, 2B and SERT
Method: MVICs isolated from healthy controls and patients with LL, LS, SS gene polymorphisms were treated with […] 5HT for 6 days in the presence or absence of a combination of 5HT2A antagonist Ketanserin, 5HT2B antagonist SDZ, and SERT antagonist Fluoxetine. RNA was isolated and tested for SMA expression as a marker of MVIC activation.
MVICs were isolated form patients with LL, LS, or SS genotype and controls (N=5/group) and exposed to 5HT stimulation (10 nM) to measure MVICs activation by alpha smooth muscle actin (SMA) as previously described by Rachana et al. (Journal of cellular physiology 227(6): 2595-604, November 2011. PMCID: PMC3288540) and Poggio et al. (Cardiovascular research 98(3): 402-10, June 2013. PMCID: PMC3656614). A combination of 5HT2A, 2B and SERT antagonists was used to inhibit 5HT stimulation in the three different genotypes (LL, LS, SS) with 10 μM ketanserin, 1 μM SDZ SER-082, and 1 μM Fluoxitine. (FIG. 4). RNA extract was collected to detect SMA expression.

C57BL/6J mice = assay: Chronic angiotensin II infusion, remodeling of the mitral valve tissue in mice; type: in vivo; conditions: 28 days chronic infusion; for ECM remodeling of MV leaflets / 5HTR2A, 5HTR2B and SERT expression in MV leaflets: AngII vs. saline; for ECM remodeling of MV leaflets: histology; for 5HTR2A, 5HTR2B and SERT expression in MV leaflets: immunohistochemistry
Text: (A) Representative H&E staining of cross section of mice hearts harvested 28 days after saline or AngII chronic infusion. (B) Modified Movat Pentachrome staining of MV leaflets harvested 28 days after saline or AngII chronic infusion (Magnification 10× and 43×). (C) and (D) Immunohistochemistry staining of murine MV leaflets using anti-5HTR2A and anti-5HTR2B antibodies, respectively.
We have recently reported that reactive oxygen species (ROS) accumulation is leading aortic VICs activation ex vivo and in vitro with results showing that adenoviral delivery of antioxidant enzymes ameliorates aortic VICs activation. We therefore used our murine model based on chronic AngII infusion to reproduce ROS accumulation in the cardiac tissue (Branchetti et al., Cardiovasc Res. 2013; 100(2):316-324) to test whether we could provoke MV remodeling.

## NCCc1c[nH]c2ccc(O)cc12 [5HT, serotonin]
Human MVICs; MVICs from patients with LL genotype
  SMA expression on 5HT stimulation: significant upregulation of SMA
Human MVICs; MVICs from patients with SS and LS genotype
  SMA expression on 5HT stimulation: not responsive

## CN1CC[C@@H]2CN3CCc4cccc(c43)[C@@H]2C1 [SDZ, SDZ SER-082]
Human MVICs
  VIC activation associated with 5HTR activation: partially abrogate this effect

## CNCCC(Oc1ccc(C(F)(F)F)cc1)c1ccccc1 (stereo not shown) [Fluoxetine]
Human MVICs
  VIC activation associated with 5HTR activation: partially abrogate this effect

## Angiotensin II (DRVYIHPF; Angiotensin-2; UniProt P11859 25-32, looked up) [AngII, chronically infused to induce ROS accumulation and MV remodeling in mice]
C57BL/6J mice; AngII treated vs. saline infused mice, p<0.01
  mitral valve cusp thickness: increased
C57BL/6J mice
  ECM remodeling of MV leaflets: significant rearrangement of the ECM
  5HTR2A, 5HTR2B and SERT expression in MV leaflets: increased 5HTR2A and 2B and SERT
C57BL/6J mice; listed as Angiotensin II
  ECM remodeling of MV leaflets: ECM remodeling
  5HTR2A, 5HTR2B and SERT expression in MV leaflets: increased 5HTR-2B/SERT expressions

## O=C(c1ccc(F)cc1)C1CCN(CCn2c(=O)[nH]c3ccccc3c2=O)CC1 [Ketanserin]
Human MVICs
  VIC activation associated with 5HTR activation: partially abrogate this effect
